Results published in patent US9408853B2, “Iridium/rhodium anti-cancer compounds” (University of Warwick, priority 2010, dated 2016).
Several values for one entry are separate records, joined by “and”; a condition that tells them apart may be missing. Equal values may be shown once.

Assays:
[1] = tested on: ca. 60 cell lines within nine tumour type subpanels; assay type: cell-based
Text: Six complexes, [(η^5-C5Me4C6H4C6H5)Ir(bpy)Cl]PF6 (ZL25, bpy=2,2′-bipyridine), [(η^5-C5Me4C6H5)Ir(phen)Cl]PF6 (ZL33, phen=1,10-phenanthroline), [(η^5-C5Me4C6H4C6H5) Ir(pico)Cl] (ZL43, pico=picolinate), [(η^5-C5Me5)Ir(2-phpy)Cl] (ZL47), [(η^5-C5Me4C6H4C6H5)Ir(2-phPY)(D2O)Cl] (ZL49) and [(η^5-C5Me4C6H4C6H5) Ir(phen)Cl]PF6 (ZL54), were selected by Developmental Therapeutics Program of National Cancer Institute (NCI, U.S.A.) for in vitro screening test, in which 5 complexes except ZL43 are selected for further testing. The five complexes were tested on ca. 60 cell lines within nine tumour type subpanels at five concentrations ranging from 0.01 to 100 μM.

9-ethylguanine (9-EtG) = experiment: Interactions with nucleobases: 9-EtG adduct formation (1H NMR); assay type: binding; conditions: 1 mM, 1 mol equiv 9-EtG (ZL33A: 2 mol equiv), D2O, 310 K
Procedure: (§1) Interactions with Nucleobases. The reaction of ZL01, ZL03, ZL04, ZL07, ZL25, ZL33, ZL37, ZL38, ZL43 and ZL54 and ZL33A with nucleobases typically involved addition of a solution containing 1-2 mol equiv of nucleobase in D2O, to an equilibrium solution of ZL01, ZL03, ZL04, ZL07, ZL25, ZL33, ZL37, ZL38, ZL43, ZL54 and ZL33A in a solution of 5% MeOD-d4/95% D2O (v/v). ^1H NMR spectra of these solutions were recorded at 310 K after various time intervals.
(§2) Since DNA is a potential target site for transition metal anticancer complexes,^18 nucleobase binding reactions of compounds ZL01, ZL03, ZL04, ZL07, ZL25, ZL33, ZL33A, ZL37, ZL38, ZL43 and ZL54 with nucleobase models 9-ethylguanine (9-EtG) and 9-ethyladenine (9-EtA), were investigated. Solutions of ZL01, ZL03, ZL04, ZL07, ZL25, ZL33, ZL37, ZL38, ZL43 and ZL54 (1 mM) (containing an equilibrium mixture of these complexes and their respective aqua adducts) with 1 mol equivalent of 9-EtG or 9-EtA in D2O were prepared, and ^1H NMR spectra were recorded at different time intervals.
Interactions with Nucleobases. Since DNA is a potential target site for transition metal anticancer complexes,^23 the binding of 9-ethylguanine (9-EtG) to complexes ZL47, ZL49, ZL69, ZL74 and ZL107 was studied.

9-ethyladenine (9-EtA) = experiment: Interactions with nucleobases: 9-EtA adduct formation (1H NMR); assay type: binding; conditions: 10 min; 1 mM, 1 mol equiv 9-EtA, D2O, 310 K
Procedure: as §1, §2

A549 cancer cell line = experiment: Cytotoxicity, MTT assay (Brabec group); assay type: cell-based
Procedure: (§3) The cytotoxicity test of ZL07, ZL33, ZL38 and ZL54 against A2780, SW480, A549 and CH1 cell lines was performed by Viktor Brabec group (Institute of Biophysics, Academy of Sciences of the Czech Republic). After plating, the cells were treated with ZL07, ZL33, ZL38 and ZL54. After 72h of incubation 10 μl of MTT (2.5 mg/ml; CALBIOCHEM) was added to each well and incubated for 4 h in culture conditions. At the end of the incubation period the medium was removed and the formazan product was dissolved in 100 μl DMSO. The cell viability was evaluated by measurement of the absorbance at 570 nm, using an Absorbance Reader SUNRICE TECAN SCHOELLER. […] All experiments were made in quadruplicate.

SW480 cancer cell line = experiment: Cytotoxicity, MTT assay (Brabec group); assay type: cell-based
Procedure: as §3

CH1 cancer cell line = experiment: Cytotoxicity, MTT assay (Brabec group); assay type: cell-based
Procedure: as §3

[2] = Aqua adduct formation of ZL33 at chloride levels of nucleus, cytoplasm and plasma (1H NMR); assay type: physicochemical; conditions: 1 mM in D2O, 310 K
Procedure: The effects of chloride concentrations typical of blood plasma (100 mM), cell cytoplasm (22.7 mM), and cell nucleus (4 mM) on the aqueous chemistry of ZL33 was investigated. ^1H NMR spectra of ZL33 (1 mM) were recorded within 10 min of sample preparation and after incubation at 310 K for 24 h (FIG. 4). […] (pH* 6.52) or in 22.7 mM [Cl] (pH* 6.72), and only 5% of ZL33A at 4 mM [Cl] (pH* 6.89) after 10 min. No significant change was observed after 24 h, see Table 2.

[3] = tested on: human ovarian A2780 cancer cells; experiment: Cancer cell cytotoxicity, SRB assay; assay type: cell-based; conditions: 24 h exposure, 72 h recovery, SRB; read-out: A2780 IC50
Summary of the method: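 Cells plated at 5000/well were dosed on day 3 with Ir^III complexes (0.05–100 μM, from DMSO stocks diluted into saline and medium) for 24 h. After washout they grew for 72 h in fresh medium before SRB protein staining as a survival read-out. Two independent experiments of three replicates each.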

[4] = highest test concentration 130 μM

Cc1c(C)c(-c2ccccc2)[c-](C)c1C.F[P-](F)(F)(F)(F)F.[Cl-].[Ir+3].c1cnc2c(c1)ccc1cccnc12 (stereo not shown) [ZL33, [(η^5-C5Me4C6H5)Ir(phen)Cl]PF6]
CC50 [1]: 93.3 µM | Mean graph midpoint (MID) TGI ([1]; ca. 60 cell lines, 0.01 to 100 μM): 51.3 µM | GI50 ([1]; ca. 60 cell lines, 0.01 to 100 μM, read-out: Mean graph midpoint (MID) GI50): 10.7 µM | selectivity among tumour type subpanels (in words) ([1]; mean graphs): selective for leukemia, CNS cancer, melanoma, and prostate cancer | Reaction with 9-EtG, extent of adduct formation (9-ethylguanine (9-EtG); 10 min): 15% and 15.5% | Reaction with 9-EtG, extent of adduct formation (9-ethylguanine (9-EtG); 24 h): 42.2% | Reaction with 9-EtA, extent of adduct formation (9-ethyladenine (9-EtA)): 0% | IC50 (A549 cancer cell line; 72 h incubation, MTT): 11.5 ± 2.4 µM | cytotoxicity towards A549 (in words) (A549 cancer cell line; [4]): promising cytotoxicity | IC50 (SW480 cancer cell line; 72 h incubation, MTT): 1.41 ± 0.2 µM | times more active than cisplatin (SW480 cancer cell line; SW480): ca. 6.5 times | cytotoxicity towards SW480 (in words) (SW480 cancer cell line; [4]): promising cytotoxicity | IC50 (CH1 cancer cell line; 72 h incubation, MTT): 1.32 ± 0.3 µM | cytotoxicity towards CH1 (in words) (CH1 cancer cell line; [4]): promising cytotoxicity | % aqua adduct of ZL33 (ZL33A) ([2]; 4 mM NaCl, t = 10 min): 5% | % aqua adduct of ZL33 (ZL33A) ([2]; 4 mM NaCl, t = 24 h): 5% | % aqua adduct of ZL33 (ZL33A) ([2]; 22.7 mM NaCl, t = 24 h): 0% | % aqua adduct of ZL33 (ZL33A) ([2]; 100 mM NaCl, t = 24 h): 0% | IC50 [3]: 6.7 µM
